According to ChEMBL document CHEMBL5375973, “Design and Synthesis of Novel Near-Infrared Fluorescence Probes Based on an Open Conformation of a Cytochrome P450 1B1 Complex for Molecular Imaging of Colorectal Tumors” (J Med Chem, 2023):

How the values were obtained:
Format in all cases: ADME
Cytochrome P450 1A2 = biological target: T1, Cytochrome P450 1A2 (Homo sapiens, UniProt P05177); test: Inhibition of recombinant CYP1A2 (unknown origin) using 7-ethoxyresorufin as substrate preincubated for 5 mins followed by NADPH addition incubated for 50 mins by EROD assay
T1 sequence (P05177 whole entry): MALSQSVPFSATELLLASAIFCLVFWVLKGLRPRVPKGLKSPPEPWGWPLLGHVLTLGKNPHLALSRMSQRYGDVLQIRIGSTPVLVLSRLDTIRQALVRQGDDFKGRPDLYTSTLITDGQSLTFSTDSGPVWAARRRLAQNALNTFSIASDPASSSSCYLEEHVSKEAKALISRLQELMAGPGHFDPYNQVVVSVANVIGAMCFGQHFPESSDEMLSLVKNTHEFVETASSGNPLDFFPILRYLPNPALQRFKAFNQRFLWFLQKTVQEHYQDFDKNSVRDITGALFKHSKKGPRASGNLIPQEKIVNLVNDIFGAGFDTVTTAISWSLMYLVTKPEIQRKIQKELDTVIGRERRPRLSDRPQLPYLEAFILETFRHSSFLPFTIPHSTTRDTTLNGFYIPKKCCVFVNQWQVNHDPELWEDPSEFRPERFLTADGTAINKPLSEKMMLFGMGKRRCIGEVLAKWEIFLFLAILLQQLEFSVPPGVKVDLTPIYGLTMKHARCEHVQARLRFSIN

Cytochrome P450 1B1 = biological target: T2, Cytochrome P450 1B1 (Homo sapiens, UniProt Q16678); test: Inhibition of recombinant CYP1B1 (unknown origin) using 7-ethoxyresorufin as substrate preincubated for 5 mins followed by NADPH addition incubated for 35 mins by EROD assay
T2 sequence (Q16678 whole entry): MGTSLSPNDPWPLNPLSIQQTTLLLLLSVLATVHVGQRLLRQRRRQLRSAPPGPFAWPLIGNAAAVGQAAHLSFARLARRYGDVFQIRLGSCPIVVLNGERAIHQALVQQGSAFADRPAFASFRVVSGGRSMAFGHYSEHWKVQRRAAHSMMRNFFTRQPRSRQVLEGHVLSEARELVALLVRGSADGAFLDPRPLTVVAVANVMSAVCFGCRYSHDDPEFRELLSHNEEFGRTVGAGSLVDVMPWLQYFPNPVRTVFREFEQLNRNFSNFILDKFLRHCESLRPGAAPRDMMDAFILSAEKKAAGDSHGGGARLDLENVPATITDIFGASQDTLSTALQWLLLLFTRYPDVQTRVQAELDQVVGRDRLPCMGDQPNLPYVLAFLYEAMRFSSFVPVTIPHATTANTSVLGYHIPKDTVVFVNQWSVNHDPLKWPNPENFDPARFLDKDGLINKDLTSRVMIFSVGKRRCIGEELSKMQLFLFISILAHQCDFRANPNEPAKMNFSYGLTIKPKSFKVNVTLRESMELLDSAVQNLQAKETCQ

Cytochrome P450 1A1 = biological target: T3, Cytochrome P450 1A1 (Homo sapiens, UniProt P04798); test: Inhibition of recombinant CYP1A1 (unknown origin) using 7-ethoxyresorufin as substrate preincubated for 5 mins followed by NADPH addition incubated for 15 mins by EROD assay
T3 sequence (P04798 whole entry): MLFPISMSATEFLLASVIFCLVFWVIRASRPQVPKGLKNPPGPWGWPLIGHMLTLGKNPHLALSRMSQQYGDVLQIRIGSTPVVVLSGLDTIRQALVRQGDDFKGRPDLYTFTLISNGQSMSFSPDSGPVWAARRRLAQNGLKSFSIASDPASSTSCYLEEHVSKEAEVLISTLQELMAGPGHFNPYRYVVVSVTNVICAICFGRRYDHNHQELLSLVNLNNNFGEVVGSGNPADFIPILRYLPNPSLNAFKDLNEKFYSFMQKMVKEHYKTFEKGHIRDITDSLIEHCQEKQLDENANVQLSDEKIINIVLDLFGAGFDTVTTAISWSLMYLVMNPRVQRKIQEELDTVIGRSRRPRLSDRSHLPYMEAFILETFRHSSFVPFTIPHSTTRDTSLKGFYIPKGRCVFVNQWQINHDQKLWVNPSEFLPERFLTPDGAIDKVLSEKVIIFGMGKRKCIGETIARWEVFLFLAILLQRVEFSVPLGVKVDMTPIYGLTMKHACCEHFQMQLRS

Structure (SMILES)	IC50 (Cytochrome P450 1A2) [nM]	IC50 (Cytochrome P450 1B1) [nM]	further results
COc1ccc(OC)c2c1c(OC)cc1c(=O)cc(-c3cc(F)cc(NC(=O)COCCN)c3)oc12	1600		
COc1ccc(OC)c2c1c(OC)cc1c(=O)cc(-c3ccc(O)c(F)c3)oc12		113	
COc1ccc(OC)c2c1c(OC)cc1c(=O)cc(-c3cc(F)cc(NC(=O)CCCCCCCCN)c3)oc12	> 2000		
COc1ccc(OC)c2c1c(OC)cc1c(=O)cc(-c3cc(O)cc(F)c3)oc12		95	
COc1ccc(OC)c2c1c(OC)cc1c(=O)cc(-c3cc(N)cc(F)c3)oc12		2.03	
O=c1cc(-c2ccccc2)oc2c1ccc1ccccc12 [ALPHA-NAPHTHOFLAVONE]			IC50 (Cytochrome P450 1A1): 37.8 nM
COc1ccc(OC)c2c1c(OC)cc1c(=O)cc(-c3cc(F)cc(NC(=O)CCCCN)c3)oc12	514		
COc1ccc(OC)c2c1c(OC)cc1c(=O)cc(-c3ccc(N)c(F)c3)oc12		2.47	
COc1ccc(OC)c2c1c(OC)cc1c(=O)cc(-c3cc(F)cc(OCCOCCOCCN)c3)oc12	1840		
